Converted amounts (≈) assume the structure as drawn. Blank lines part the entries; values can stand above or below the compound they belong to.
Legend:
[1] = target: T1, Cystic fibrosis transmembrane conductance regulator (Homo sapiens, UniProt P13569, F508DEL); assay: Activation of CFTR F508del mutant (unknown origin)
[2] = AUC in rat at 3 mg/kg, po; details: in vivo
[3] = target: T2, Nuclear receptor subfamily 1 group I member 2 (Homo sapiens, UniProt O75469); assay: Activation of PXR (unknown origin) at 10 uM relative to rifampicin
T2 sequence (O75469 whole entry): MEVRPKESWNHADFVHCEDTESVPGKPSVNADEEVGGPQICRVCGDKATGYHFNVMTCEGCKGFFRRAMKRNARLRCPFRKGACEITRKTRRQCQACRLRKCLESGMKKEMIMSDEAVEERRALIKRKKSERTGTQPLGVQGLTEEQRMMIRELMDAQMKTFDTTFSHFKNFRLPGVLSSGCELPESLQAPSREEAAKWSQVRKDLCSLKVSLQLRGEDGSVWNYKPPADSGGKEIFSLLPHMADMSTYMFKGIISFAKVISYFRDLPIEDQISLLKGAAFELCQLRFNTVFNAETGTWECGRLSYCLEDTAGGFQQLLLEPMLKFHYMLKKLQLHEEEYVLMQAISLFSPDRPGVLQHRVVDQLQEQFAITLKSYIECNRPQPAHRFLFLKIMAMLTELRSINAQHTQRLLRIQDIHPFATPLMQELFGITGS

[4] = Metabolic stability in rat liver microsomes assessed as intrinsic clearance; type: ADME, Microsome
[5] = Solubility of compound at pH 6.8 incubated for 12 hrs by HPLC analysis; type: physicochemical; details: buffer
[6] = Apparent permeability across apical to basolateral side in MDCK cells; type: ADME, cell-based, Canis lupus familiaris; details: dog
[7] = target: T1, Cystic fibrosis transmembrane conductance regulator; assay: Potentiation of CFTR F508del mutant (unknown origin) expressed in NIH3T3 cells; type: cell-based
[8] = target: T3, PXR (nuclear receptor subfamily 1 group I member 2) (Homo sapiens, UniProt O75469); assay: Activation of PXR (unknown origin) at 10 uM relative to control; details: read-out: Activity
T3 sequence (O75469 whole entry): T2 sequence (O75469 whole entry)

[9] = Oral bioavailability in rat; type: ADME, organism-based; details: in vivo
[10] = Intrinsic clearance in mouse liver microsomes by HPLC-MS/MS analysis; type: ADME, Microsome; details: read-out: CLH (converted)
[11] = Half life in rat at 3 mg/kg, iv measured for 24 hrs by LC-MS/MS analysis; type: ADME, organism-based; details: in vivo
[12] = Intrinsic clearance in rat liver microsomes by HPLC-MS/MS analysis; type: ADME, Microsome; details: read-out: CLH (converted)
[13] = Clearance in rat liver microsomes by LC-MS/MS analysis; type: ADME, Microsome
[14] = Volume of distribution at steady state in rat at 3 mg/kg, iv measured for 24 hrs by LC-MS/MS analysis; type: ADME, organism-based; details: in vivo, read-out: Vdss
[15] = target: T1, Cystic fibrosis transmembrane conductance regulator; assay: Potentiation of CFTR F508del mutant (unknown origin)

T1 sequence (P13569 as listed by the source): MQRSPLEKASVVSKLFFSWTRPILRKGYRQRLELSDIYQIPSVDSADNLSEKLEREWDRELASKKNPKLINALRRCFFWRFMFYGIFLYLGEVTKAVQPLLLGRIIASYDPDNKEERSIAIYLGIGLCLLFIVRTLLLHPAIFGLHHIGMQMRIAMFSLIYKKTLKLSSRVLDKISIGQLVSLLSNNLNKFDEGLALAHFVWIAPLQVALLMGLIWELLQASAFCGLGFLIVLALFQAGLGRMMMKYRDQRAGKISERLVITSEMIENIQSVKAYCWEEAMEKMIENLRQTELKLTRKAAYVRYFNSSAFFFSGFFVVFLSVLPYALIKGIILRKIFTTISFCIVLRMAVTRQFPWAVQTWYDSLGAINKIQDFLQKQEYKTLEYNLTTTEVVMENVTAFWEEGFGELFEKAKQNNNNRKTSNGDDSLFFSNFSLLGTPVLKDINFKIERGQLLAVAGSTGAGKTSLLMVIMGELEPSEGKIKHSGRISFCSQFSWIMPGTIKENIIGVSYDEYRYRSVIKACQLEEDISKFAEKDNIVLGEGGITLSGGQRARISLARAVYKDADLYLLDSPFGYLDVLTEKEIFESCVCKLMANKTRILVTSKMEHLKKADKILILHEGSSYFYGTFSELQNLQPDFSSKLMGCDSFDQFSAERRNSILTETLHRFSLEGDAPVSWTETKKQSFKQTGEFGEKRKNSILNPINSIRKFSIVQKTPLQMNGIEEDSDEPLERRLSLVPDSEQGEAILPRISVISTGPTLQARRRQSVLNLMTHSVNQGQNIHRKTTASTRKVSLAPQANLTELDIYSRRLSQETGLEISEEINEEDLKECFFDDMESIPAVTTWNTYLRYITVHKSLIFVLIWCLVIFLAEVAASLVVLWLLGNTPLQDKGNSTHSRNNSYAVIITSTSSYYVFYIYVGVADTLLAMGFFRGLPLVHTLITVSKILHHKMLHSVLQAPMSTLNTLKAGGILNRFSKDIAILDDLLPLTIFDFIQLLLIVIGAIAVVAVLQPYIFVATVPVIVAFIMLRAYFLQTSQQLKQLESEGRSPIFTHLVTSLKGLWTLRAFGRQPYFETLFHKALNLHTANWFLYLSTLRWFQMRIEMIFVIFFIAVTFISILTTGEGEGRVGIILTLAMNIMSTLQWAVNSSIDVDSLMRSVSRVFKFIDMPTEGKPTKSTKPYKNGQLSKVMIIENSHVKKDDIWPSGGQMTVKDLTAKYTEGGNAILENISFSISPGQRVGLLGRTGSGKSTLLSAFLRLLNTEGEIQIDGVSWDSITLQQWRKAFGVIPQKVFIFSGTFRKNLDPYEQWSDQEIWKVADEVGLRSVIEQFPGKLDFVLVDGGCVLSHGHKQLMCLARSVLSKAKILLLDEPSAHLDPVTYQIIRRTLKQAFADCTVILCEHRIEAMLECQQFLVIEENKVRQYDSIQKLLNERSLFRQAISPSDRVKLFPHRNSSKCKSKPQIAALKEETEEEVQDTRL

SMILES: Nc1cc(C(F)(F)F)c(Br)nc1C(=O)NCCC(F)(F)F
CLint [4]: 55.8 µL/min/mg | solubility at 12 h [5]: 170 µg/mL (≈ 447 µM)

SMILES: Nc1cc(S(=O)(=O)c2ccc(OC(F)(F)F)cc2)cnc1-c1nnc(CO)o1 [NAVOCAFTOR]
EC50 [1]: 5.6 nM

SMILES: Cc1nn(C)cc1S(=O)(=O)NC(=O)c1ccc(-n2ccc(OCC(C)(C)C(F)(F)F)n2)nc1N1C[C@@H](C)CC1(C)C [ELEXACAFTOR]
Papp A→B [6]: 4.5 ×10⁻⁶ cm/s | EC50 [7]: 70 nM | activity at 10 µM [8]: 2% | bioavailability [9]: 83%

SMILES: Cc1nn(C)cc1S(=O)(=O)NC(=O)c1ccc(-n2ccc(OCC3(C(F)(F)F)CC3)n2)nc1N1C[C@@H](C)CC1(C)C
Papp A→B [6]: 7.1 ×10⁻⁶ cm/s | EC50 [7]: 220 nM | activity at 10 µM [8]: 4%

SMILES: CCOc1cccc([C@@H]2C[C@]2(C(=O)NS(=O)(=O)c2cccc3nc(C)ccc23)c2cc(C)ccc2OC)n1
EC50 [1]: 90 nM

SMILES: C[C@@H]1CN(c2nc(-n3ccc(OCCC4(C(F)(F)F)CC4)n3)ccc2C(=O)NS(=O)(=O)c2cccc(F)c2)C(C)(C)C1
AUC [2]: 2700 ng·h/mL | EC50 [1]: 50 nM

SMILES: CCOc1cccc([C@H]2C[C@@]2(C(=O)NS(=O)(=O)c2cccc3nc(C)ccc23)c2cc(C)ccc2OC)n1
EC50 [1]: 5 nM

SMILES: CC(O)CNC(=O)c1ncc(S(=O)(=O)N2CCC(OC(F)(F)F)CC2)cc1N (centres undefined)
EC50 [1]: 5 nM | CLint scaled [10]: 300 mL/min/kg | Activity [3]: 80% | half-life [11]: 1.3 h | CLint scaled [12]: 133 mL/min/kg | CLH [13]: 31.7 mL/min/kg | Vd [14]: 3.2 L/kg

SMILES: CC1(C)Cc2c(sc(NC(=O)c3ccccc3O)c2C(N)=O)C(C)(C)O1
EC50 [1]: 15 nM

SMILES: Cc1nn(C)cc1S(=O)(=O)NC(=O)c1ccc(-n2ccc(OCC3(C(F)(F)F)CCC3)n2)nc1N1C[C@@H](C)CC1(C)C
Papp A→B [6]: 2.7 ×10⁻⁶ cm/s | EC50 [7]: 130 nM | activity at 10 µM [8]: 3% | bioavailability [9]: 66%

SMILES: CNC(=O)c1nc(Br)c(C(F)(F)F)cc1N
CLint [4]: 100 µL/min/mg

SMILES: COC(=O)c1nc(I)c(C(F)(F)F)cc1N
CLint [4]: 342 µL/min/mg | EC50 [15]: 360 nM | solubility at 12 h [5]: 13 µg/mL (≈ 37.6 µM)

SMILES: CNC(=O)c1nc(-c2ccco2)c(C(F)(F)F)cc1N
CLint [4]: 205 µL/min/mg | EC50 [15]: 1860 nM | solubility at 12 h [5]: 40 µg/mL (≈ 140 µM)

SMILES: Cc1c(S(=O)(=O)NC(=O)c2ccc(-n3ccc(OCC(C)(C)C(F)(F)F)n3)nc2N2C[C@@H](C)CC2(C)C)cnn1C
Papp A→B [6]: 3.8 ×10⁻⁶ cm/s | EC50 [7]: 170 nM | activity at 10 µM [8]: 3%

SMILES: C[C@@H]1CN(c2nc(-n3ccc(OCC(C)(C)C)n3)ccc2C(=O)NS(=O)(=O)c2cccnc2N)C(C)(C)C1
AUC [2]: 1200 ng·h/mL | EC50 [1]: 60 nM | Activity [3]: 2%

SMILES: COC(=O)c1nc(-c2ccco2)c(C(F)(F)F)cc1N
CLint [4]: 351 µL/min/mg | EC50 [15]: 70 nM | solubility at 12 h [5]: 2 µg/mL (≈ 6.99 µM)

The remaining lines, values ahead:

EC50 [1]: 10 nM
SMILES: COc1ccc(C)cc1[C@@]1(C(=O)NS(=O)(=O)c2cccc3nc(C)ccc23)C[C@H](c2ccccc2)CO1 [RISELCAFTOR]

AUC [2]: 21000 ng·h/mL | EC50 [1]: 30 nM | Activity [3]: 3%
SMILES: C[C@@H]1CN(c2nc(-n3ccc(OCCC4(C(F)(F)F)CC4)n3)ccc2C(=O)NS(=O)(=O)c2ccccc2)C(C)(C)C1 [BAMOCAFTOR]

EC50 [1]: 1.6 nM
SMILES: Nc1cc(S(=O)(=O)c2ccc(C(F)(F)F)cc2)cnc1-c1nnc(CO)o1

EC50 [1]: 80 nM
SMILES: Cc1ccc(-c2cccc(C(F)(F)F)c2)c(OC2(C(=O)NS(=O)(=O)c3cccc(N4CCC(N)(C(F)(F)F)CC4)n3)CC2)c1

EC50 [1]: 30 nM
SMILES: CCOc1ccc(CC)cc1[C@@]1(C(=O)NS(=O)(=O)c2cccc3nc(C)ccc23)CCCO1

AUC [2]: 14700 ng·h/mL | EC50 [1]: 40 nM | Activity [3]: 19%
SMILES: C[C@@H]1CN(c2nc(-n3ccc(OCC4(C(F)(F)F)CC4)n3)ccc2C(=O)NS(=O)(=O)c2ccccc2)C(C)(C)C1

EC50 [1]: 3 nM
SMILES: CC(C)(CO)CN1CCCCCc2ccccc2-c2nc(ccc2C(F)(F)F)NS(=O)(=O)c2cccc1n2

EC50 [1]: < 3000 nM
SMILES: COc1ccc(Br)c2c1C(C(=O)NS(=O)(=O)c1cccc3ccccc13)CC2 (centres undefined)

EC50 [1]: 4 nM
SMILES: Cc1ccc(C2CCCCC2)c(OC2(C(=O)NS(=O)(=O)c3cccc(N4CCC(N)(C(F)(F)F)CC4)n3)CC2)c1

EC50 [1]: 2 nM
SMILES: CCc1ccccc1-c1nc(NS(=O)(=O)c2cccc(N(CCCC(=O)O)C(C)C)n2)ccc1C(F)(F)F

EC50 [1]: < 3000 nM
SMILES: COc1ccc(Br)c2c1CCCC2C(=O)NS(=O)(=O)c1cccc2ccccc12 (centres undefined)

EC50 [1]: 5 nM
SMILES: COc1ccc(C)cc1[C@]1(C(=O)NS(=O)(=O)c2cccc3nc(C)ccc23)C[C@@H]1c1cccc(C(F)(F)F)c1 (racemic)

EC50 [1]: > 300 nM
SMILES: CCOc1ccc(CC)cc1[C@]1(C(=O)NS(=O)(=O)c2cccc3nc(C)ccc23)CCCO1

— ChEMBL document CHEMBL6121060, “Discovery and Development of CFTR Modulators for the Treatment of Cystic Fibrosis” (J Med Chem, 2025)
